Several values for one entry are separate records, joined by “and”; a condition that tells them apart may be missing. Equal entries are not always repeated.
Legend:
C2C12 murine myotubes = test: Dex-induced C2C12 myotube atrophy: myotube diameter, fusion and differentiation indexes; format: cell-based, mouse; settings: 10 μM Dex 24 h, 12.5 μM BML-260
Description: (§1) C2C12 murine skeletal muscle myoblasts were purchased from Koram Biotech Corp. (Seoul, Republic of Korea). Prior to experiments, mycoplasma contamination was eliminated using the MycoXpert Mycoplasma Removal Reagent (MYX-B, CAPRICORN) following the manufacturer’s protocol. To ensure complete removal, all cells were passaged three times after treatment before being used in subsequent experiments. No STR profiling was recently undertaken. Myoblasts were cultured in growth media (GM), containing Dulbecco’s modified Eagle’s medium (DMEM), 10% fetal bovine serum, and 1% penicillin and streptomycin (PenStrep). C2C12 myoblasts were differentiated into myotubes at more than 80% confluence by culture in differentiation media (DM), containing DMEM supplemented with 2% horse serum and PenStrep, for 96 h. To induce atrophy, the myotubes were treated with DM plus 10 μM Dex for 24 h. BML-260 and SP600125 were purchased from Santa Cruz Biotechnology, TX, USA (cat. no. sc-223822 and sc-200635).
Fast myosin heavy chain 2 (MYH2) immunocytochemistry was used to visualize murine myotubes and measure myotube diameter, following the previously published protocol (Chen et al, [2016]). After mounting, fluorescence images were captured in 5 different regions using a DMI 3000 B microscope (Leica, Germany), and analyzed using the NIH imaging software Image J 64. 100 myotubes containing at least three nuclei were measured in each experimental group. Myotubes were primarily examined in the central area of each well, as opposed to randomly selected fields. The mid-point of the myotube was used to measure the diameter. For nuclear counts, we chose myotubes containing three or more nuclei. The observer was aware of the treatment conditions.
To assess myoblast fusion into multinucleate myotubes, nuclei number within fast myosin (MYH2)-positive cells were measured using the NIH imaging software Image J 64. The differentiation index was calculated as the percentage of nuclei in fast myosin (MYH2)-positive cells (nuclei in myotubes/total nuclei). Myotubes were classified as MYH-positive cells containing at least 4 nuclei. Myotubes were measured in groups of at least 100, with at least 7500 nuclei measured in each group.
(§2) Gene knockdown was carried out following the manufacturer’s protocol using a 6-well culture plate format (Thermo Fischer Scientific, Waltham, USA). Lipofectamine 3000 was used for the transfection step (Thermo Fischer Scientific, Waltham, USA). siRNA transfection was performed on day 3 of myoblast differentiation into myotubes. C2C12 myotubes and primary human myotubes were transfected with 75 pmol siRNA duplex. Details of the siRNAs used in this study are shown in Appendix Table S3.

C2C12 myotubes = test: Real-time qPCR of gene expression in C2C12 myotubes; format: cell-based, mouse; settings: for atrogin-1 and MuRF-1 expression, qPCR: 10 μM Dex 24 h, 12.5 μM BML-260; for DUSP22 expression, qPCR, Average / MURF-1 expression, qPCR, Average / atrogin-1 (ATRO) expression, qPCR, Average: Vehicle average = 1, n = 5; for DUSP22 expression, qPCR / MURF-1 expression, qPCR / atrogin-1 (ATRO) expression, qPCR: Vehicle average = 1, replicates
Description: as §1
The StepOnePlus Real Time PCR System (Applied Biosystems, UK) was used to measure the mRNA level of the genes of interest. An AccuPower RT PreMix (Bioneer, Republic of Korea) was used to synthesize the cDNA from total RNA. The real-time PCR (qPCR) was carried out according to the manufacturer’s instructions, and the previously published protocol (Lee et al, [2020]). Details of the primers used in this study are shown in Appendix Tables S1 and S2.
as §2

C57BL/6J mice = test: Dex treatment mouse model of skeletal muscle atrophy, BML-260 treatment; format: in vivo; settings: for mean body weight: 15 mg/kg Dex, 5 mg/kg BML-260, IP daily
Description: The Dex model of muscle atrophy was based on the previously published protocol (Kim et al, [2022]). In brief, 12-week-old male C57BL/6J mice were treated as follows: 1) Vehicle (DMSO in PBS pH 7.4 with 5% Tween 80) alone, 2) 15 mg/kg Dex dissolved in vehicle, 3) 15 mg/kg Dex and 5 mg/kg BML-260 (n = 5 per group). Mice were treated daily by intraperitoneal (IP) injection for 14 d and then assessed for muscle condition. The 5 mg/kg in vivo dose was selected based on a previous study that carried out bilateral injection of BML-260 into the fat pads of male 8-week-old C57BL/6J mice (Feng et al, [2019]).
Grip strength was measured using the BIO-GS3 device (Bioseb, FL, USA). Mice were placed onto the grid with all four paws attached and gently pulled backwards to measure the grip strength until the grid was released. The maximum grip value, used to represent muscle force, was calculated using 3 trials with an interval of 30 s.
Muscle fatigue was measured the previously described protocol (Chiu et al, [2018]), with two different models using the Rotarod. One was the constant model and the other was the accelerating model that is inherent in the rotarod device. In brief, the mice were accommodated to training before the commencement of the fatigue task using an accelerating rotarod (Ugo Basile, Italy). The mice were trained at a constant speed of 13 rpm for 15 min. After a recovery period of 15 min, the mice were placed on the rotarod adjusted to accelerate from 13 to 25 rpm in 3 min for 15 min. 24 h later, the muscle fatigue test was carried out with speeds ramping from 13 to 25 rpm in 3 min, and maintained at 25 rpm for a 30 min interval. Latency to fall off the rotarod was measured for each mouse. A fatigued mouse was classified as falling off 4 times within a 1 min period, which also terminated the test.
Mice were anesthetized using ketamine (22 mg/kg; Yuhan, Republic of Korea) and xylazine (10 mg/kg; Bayer, Republic of Korea) in saline by IP injection. The quadriceps, gastrocnemius, soleus and TA muscles were then dissected and weighed. For histological analysis, the muscles were fixed by overnight incubation with 4% paraformaldehyde in PBS pH 7.4 at 4 °C. Paraffin sectioning and H&E staining were provided by the Animal Housing Facility, Gwangju Institute of Science and Technology, Republic of Korea (5 µm muscle sections using a Thermo Scientific HistoStar (Thermofisher). H&E staining was carried out with a kit (Merck, Germany)). For immunohistochemistry, TA muscle sections were permeabilized for 15 min (PBS with 0.5% Triton X-100), blocked for 1 h (5% BSA) and incubated with the primary antibody overnight at 4 °C (a list of primary and secondary antibodies used in this study are provided in Appendix Tables S4 and S5, respectively). After washing with PBS 3 times for 5 min, the sections were incubated with the secondary antibody at RT for 1 h. The nuclei were counterstained with DAPI in ProLong™ Gold Antifade Mountant (Invitrogen, P36935). Digital images were acquired with Leica DM 2500 (Leica Microsystems). Cross sectional area (CSA) and fiber size distribution was measured using the NIH imaging software Image J 64. To CSA and size distribution of different fiber types was calculated in 4 muscle section as follows: type 2 A: 30–40 fibers measured; type 2B: at least 100 fibers measured; type 2X: 30–40 fibers measured.

[1] = dexamethasone-treated C2C12 myotubes
[2] = dexamethasone-treated C2C12 myotubes, listed as BML
[3] = 15 mg/kg Dex and 5 mg/kg BML-260, IP daily 14 d
[4] = C2C12 myotubes treated with Dex

SMILES: O=C(O)c1ccc(N2C(=O)C(=Cc3ccccc3)SC2=S)cc1 (stereo in doubt) [BML-260]
- myotube atrophy (myotube diameter) (C2C12 murine myotubes): prevented myotube atrophy
- myotube fusion and differentiation indexes (C2C12 murine myotubes): recovered
- proportion of larger-sized myotubes (C2C12 murine myotubes): maintained the proportion of larger-sized myotubes
- atrogin-1 and MuRF-1 expression, qPCR (C2C12 myotubes): downregulated
- additional effect on Dex-induced atrogene expression in the presence of DUSP22 gene knockdown (C2C12 myotubes; Dex-treated C2C12 myotubes): no significant additional effect
- DUSP22 expression, qPCR, Average (C2C12 myotubes; [1]): 1.419
- MURF-1 expression, qPCR, Average (C2C12 myotubes; [1]): 2.125
- atrogin-1 (ATRO) expression, qPCR, Average (C2C12 myotubes; [1]): 2.99
- DUSP22 expression, qPCR (C2C12 myotubes; [2]): 1.3832 and 1.906 and 1.483 and 1.176 and 1.145
- MURF-1 expression, qPCR (C2C12 myotubes; [2]): 2.278 and 2.851 and 2.228 and 1.487 and 1.782
- atrogin-1 (ATRO) expression, qPCR (C2C12 myotubes; [2]): 3.37 and 3.403 and 3.232 and 2.06 and 2.886
- TA muscle mass (C57BL/6J mice; [3]): increased
- grip strength (C57BL/6J mice; [3]): increased the mean grip strength value, but it did not achieve statistical significance
- myofiber area distribution (C57BL/6J mice; [3]): shifted the myofiber area distribution towards larger sized fibers
- rotarod muscle performance, acceleration and constant models (C57BL/6J mice; [3]): significantly recovered muscle performance
- upregulation of atrogin-1, MuRF-1 and DUSP22 in TA muscle, western blot (C57BL/6J mice; [3]): inhibited
- myofiber CSA (C57BL/6J mice; 15 mg/kg Dex and 5 mg/kg BML-260, IP daily 14 d, TA muscle per text): significantly increased
- mean body weight (C57BL/6J mice): recovered

SMILES: C[C@@H]1C[C@H]2[C@@H]3CCC4=CC(=O)C=C[C@]4(C)[C@@]3(F)[C@@H](O)C[C@]2(C)[C@@]1(O)C(=O)CO [Dex, dexamethasone]
- myotube atrophy (myotube diameter) (C2C12 murine myotubes): underwent atrophy
- atrogin-1 and MuRF-1 expression, qPCR (C2C12 myotubes): upregulated
- DUSP22 expression in myotubes undergoing Dex-induced atrophy, RNA Seq and qPCR (C2C12 myotubes; C2C12 myotubes): upregulated
- DUSP22 expression, qPCR, Average (C2C12 myotubes; [4]): 1.867
- DUSP22 expression, qPCR (C2C12 myotubes; [4]): 1.751 and 1.762 and 2.076 and 2.045 and 1.699
- DUSP22 expression, qPCR, Average (C2C12 myotubes; [1]): 1.628
- MURF-1 expression, qPCR, Average (C2C12 myotubes; [1]): 2.64
- atrogin-1 (ATRO) expression, qPCR, Average (C2C12 myotubes; [1]): 4.291
- DUSP22 expression, qPCR (C2C12 myotubes; [1]): 2.068 and 1.836 and 1.276 and 1.511 and 1.449
- MURF-1 expression, qPCR (C2C12 myotubes; [1]): 3.398 and 2.859 and 1.96 and 2.287 and 2.697
- atrogin-1 (ATRO) expression, qPCR (C2C12 myotubes; [1]): 4.546 and 3.961 and 4.048 and 4.199 and 4.699
- mean body weight (C57BL/6J mice): significantly reduced
- DUSP22 expression, qPCR (C57BL/6J mice; TA muscle of C57BL/6 mice treated with Dex, Vehicle average = 1, individual animals): 2.47 and 1.789 and 1.328 and 1.032

— article PMC12162873, “Modulating phosphatase DUSP22 with BML-260 ameliorates skeletal muscle wasting via Akt independent JNK-FOXO3a repression” (EMBO Molecular Medicine, 2025)
